Laboratory results taken from patent publication US20250025454A1 (priority 2021, published 2025).
Values joined by “and” are separate entries in the source; they are usually repeats but may differ in a detail not shown here. Identical values can stand only once. “Also recorded” adds a separate entry of the source. Like-named read-outs stand apart in the source and are kept apart here.

Assays:
[1] = Scripps ReFrame database; cited from earlier work
[2] = Pharmacokinetics (plasma and lung tissue) after single and 5-day repeat oral dosing in female 129S1 mice; conditions: for adverse reactions / tolerability: female 129S1 mice, PO 50 and 250 mg/kg up to 5 days; for Kp: Lung/Plasma AUC ratio; for AUC(0-t): AUClast ± SE; for MRT last at 5 day / MRT last: MRTlast; for Kp at 24 h: L/P Ratio, non-infected mice, 250 mg/kg QD oral
in vivo = conditions: female, 129/S, mouse
[3] = single oral dose, comparable for all doses, cited from earlier work
SARS-CoV-2 [4] = conditions: 35 compounds tested
SARS-CoV-2 [5] = conditions: Scripps ReFrame database; cited from earlier work
[6] = in vivo; cited from earlier work
[7] = Pharmacokinetics (plasma, lung at 24 h) after single oral dosing in male Sprague-Dawley rats; conditions: for AUC(0-t): AUClast
[8] = female, 129S1, mouse, in vivo, 250 mg/kg
[9] = female, 129S1, mouse, in vivo, po, 50 mg/kg
[10] = female, 129S1, mouse, in vivo, po, 50 mg/kg, plasma, 50 mg/kg PO multiple, 5-day, dose
[11] = female, 129S1, mouse, in vivo, po, 50 mg/kg, plasma, 50 mg/kg PO single dose
[12] = female, 129S1, mouse, in vivo, po, 250 mg/kg
[13] = female, 129S1, mouse, in vivo, po, 250 mg/kg, plasma, 250 mg/kg PO multiple, 5-day, dose
[14] = female, 129S1, mouse, in vivo, po, 250 mg/kg, plasma, 250 mg/kg PO single dose
[15] = female, 129S1, mouse, in vivo, po, 250 mg/kg, lung, 250 mg/kg PO multiple, 5-day, dose
[16] = male SD rat plasma, single oral 250 mg/kg (Group 1), individual rats 450, 451, 452, listed as MDL-001, 250 mg/kg

In the case of `Cc1c(-c2ccc(O)cc2)n(Cc2ccc(OCCN3CCCCC3)cc2)c2ccc(O)cc12` [Pipendoxifene, 2-(4-hydroxyphenyl)-3-methyl-1-[[4-(2-piperidin-1-ylethoxy)phenyl]methyl]indol-5-ol], the “activity in HTS” value [1] is listed as “INACTIVE”, the “Lung Cmax over SARS-CoV-2 IC50” value ([2]; 50 mg/kg) is listed as 17 fold and the Mean plasma concentration ([2]; 50 mg/kg PO single dose, 1.0 hr) is listed as 89.1 ng/mL. The “Lung Cmax over SARS-CoV-2 IC50” value ([2]; 250 mg/kg) was 121 fold, the Mean plasma concentration ([2]; 250 mg/kg PO single dose, 0.5 hr) was 88.8 ng/mL and the “adverse reactions / tolerability” value [2] was “no adverse events”. The “adverse reactions / tolerability” value ([2]; listed as MDL-001) was “well tolerated with no adverse clinical signs; also recorded: No adverse reactions were observed”, the “adverse reactions / tolerability” value ([2]; listed as pipendoxifene) was “No adverse reactions were observed” and the concentration at 8 hr ([2]; female, 129S1, mouse, in vivo, 50 mg/kg) was 7840 ng/g. For the same compound, the Kp ([2]; female, 129S1, mouse, in vivo, 50 mg/kg, Day 1, 50 mg/kg) was 65, the Kp ([2]; female, 129S1, mouse, in vivo, 50 mg/kg, Day 5, 50 mg/kg) was 56 and the concentration at 8 h [2, 8] was 575 ± 194 ng/mL. For the same compound, the concentration at 8 hr [2, 8] was 121 ng/mL, the half-life [2, 8] was 2.36 to 3.96 h and the Kp ([2]; female, 129S1, mouse, in vivo, 250 mg/kg, Day 1, 250 mg/kg) was 36. For the same compound, the Kp ([2]; female, 129S1, mouse, in vivo, 250 mg/kg, Day 5, 250 mg/kg) was 44, the Cmax [2, 9] was 179 ng/mL and 8310 ng/g and the Cmax at 5 day [2, 9] was 5610 ± 925 ng/g. It also gave a half-life [2, 9] of 2.36 h, a half-life at 5 day [2, 9] of 2.58 h and an AUC(0-t) [2, 10] of 1390 ± 55 ng·h/mL. For the same compound, the AUC(0-t) [2, 11] was 1600 ± 115 ng·h/mL, the AUC(0-inf) [2, 10] was 1400 ng·h/mL and the AUC(0-inf) [2, 11] was 1600 ng·h/mL. The MRT last at 5 day [2, 10] was 7.1 h, the MRT last [2, 11] was 6.95 h and the Tmax at 5 day ([2]; female, 129S1, mouse, in vivo, po, 50 mg/kg, lung, 50 mg/kg PO multiple, 5-day, dose) was 8 h. For the same compound, the Tmax ([2]; female, 129S1, mouse, in vivo, po, 50 mg/kg, lung, 50 mg/kg PO single dose) was 4 h, the Tmax [2, 11] was 2 h and the Cmax [2, 12] was 1020 ng/mL and 24700 ng/g. The Cmax at 5 day [2, 12] was 39000 ± 8840 ng/g, the half-life [2, 12] was 3.96 h and the half-life at 5 day [2, 12] was 2.52 h. It also gave an AUC(0-t) [2, 13] of 11600 ± 1190 ng·h/mL, an AUC(0-inf) [2, 13] of 11700 ng·h/mL and an AUC(0-inf) [2, 14] of 10500 ng·h/mL. For the same compound, the Kp at 24 h ([2]; female, 129S1, mouse, in vivo, po, 250 mg/kg, Day 1) was 114, the Kp at 24 h ([2]; female, 129S1, mouse, in vivo, po, 250 mg/kg, Day 5) was 177 and the MRT last at 5 day [2, 15] was 7.22 h. The MRT last [2, 14] was 8.86 h, the Tmax at 5 day [2, 15] was 4 h and the Tmax ([2]; female, 129S1, mouse, in vivo, po, 250 mg/kg, lung, 250 mg/kg PO single dose) was 8 h. It also gave a concentration at 8 h ([2]; female, 129S1, mouse, lung, oral, 50 mg/kg, Mean lung tissue concentration, 50 mg/kg PO multiple, 5-day, dose, 8.0 hr) of 5610 ± 1600 ng/g, a concentration at 1 hr ([2]; female, 129S1, mouse, plasma, oral, 50 mg/kg, Mean plasma concentration, 50 mg/kg PO single dose, 1.0 hr) of 89.1 ± 71.2 ng/mL and a concentration at 4 h ([2]; female, 129S1, mouse, plasma, oral, 50 mg/kg, Mean plasma concentration, 50 mg/kg PO single dose, 4.0 hr) of 107 ± 23 ng/mL. It also gave a concentration at 2 hr ([2]; female, 129S1, mouse, plasma, oral, 50 mg/kg, Plasma Conc., individual mouse, 50 mg/kg PO multiple, 5-day, dose, 2.0 hr) of 113 ng/mL, a concentration at 6 hr ([2]; female, 129S1, mouse, plasma, oral, 50 mg/kg, Plasma Conc., individual mouse, 50 mg/kg PO multiple, 5-day, dose, 6.0 hr) of 163 ng/mL and a concentration at 8 hr ([2]; female, 129S1, mouse, plasma, oral, 50 mg/kg, Plasma Conc., individual mouse, 50 mg/kg PO single dose, 8.0 hr) of 113 ng/mL. For the same compound, the concentration at 0.5 h ([2]; female, 129S1, mouse, plasma, oral, 250 mg/kg, Mean plasma concentration, 250 mg/kg PO single dose, 0.5 hr) was 88.8 ± 14.1 ng/mL, the concentration at 4 hr ([2]; female, 129S1, mouse, plasma, oral, 250 mg/kg, Plasma Conc., individual mouse, 250 mg/kg PO multiple, 5-day, dose, 4.0 hr) was 497 ng/mL and the Kp (in vivo; C24 h lung concentrations relative to plasma concentrations (higher)) was 3 to 4. The Kp (in vivo; po, 250 mg/kg, L/P Ratio) was 4.04, the Kp (in vivo; po, L/P Ratio) was 4.03 and the t1/2 [3] was 30 ± 16 h. For the same compound, the t1/2 ([3]; listed as pipendoxifene) was 30 h, the “activity in the HeLa-ACE2 cell-based SARS-CoV-2 assay” value (SARS-CoV-2 [4]) was “demonstrated activity” and the “activity in HTS” value (SARS-CoV-2 [5]) was “INACTIVE”. For the same compound, the primary metabolite [6] was “indole glucuronide”, the “Lung C24 h over SARS-CoV-2 IC50” value ([7]; 250 mg/kg) was 9.7 fold and the “Lung C24 h over SARS-CoV-2 IC50” value ([7]; 500 mg/kg) was 13.7 fold. The “Lung C24 h over SARS-CoV-2 IC50” value ([7]; 1000 mg/kg) was 40.9 fold, the “Lung C24 h over SARS-CoV-2 IC50” value ([7]; 6750 mg/kg (so in the source)) was 13.3 fold and the “Lung C24 h over SARS-CoV-2 IC50” value ([7]; 'higher dose', sentence in the rat section) was 5.4 fold. For the same compound, the “AUC∞” value [7, 16] was 4132 ng·h/mL and 5119 ng·h/mL and 2549 ng·h/mL, the t1/2 [7, 16] was 3.83 h and 8.95 h and 5.42 h and the t1/2 ([7]; male SD rat plasma, single oral 250 mg/kg (Group 1), mean, listed as MDL-001, 250 mg/kg) was 6.06 h. The Cmax ([7]; male SD rat plasma, single oral 1000 mg/kg (Group 4), one outlier excluded, individual rats 459, 460, 461, listed as MDL-001, 1000 mg/kg) was 501 ng/mL, the “AUC∞” value ([7]; male SD rat plasma, single oral 1000 mg/kg (Group 4), one outlier excluded, individual rats 459, 460, listed as MDL-001, 1000 mg/kg) was 7888 ng·h/mL and the “adverse reactions / tolerability” value ([7]; male SD rat, single PO dose 250-1000 mg/kg, listed as MDL-001) was “well tolerated with no adverse clinical signs; also recorded: No adverse reactions were observed”. The Kp at 24 h ([7]; male, Sprague-Dawley, rat, in vivo, Lung/Plasma C24 h ratios, range, Day 1, across the dose range) was 97 to 122, the AUC(0-t) ([7]; male, Sprague-Dawley, rat, in vivo, po, 250 mg/kg, male SD rat plasma, single oral 250 mg/kg (Group 1), individual rats 450, 451, 452) was 4040 ng·h/mL and the AUC(0-t) ([7]; male, Sprague-Dawley, rat, in vivo, po, 250 mg/kg, male SD rat plasma, single oral 250 mg/kg (Group 1), mean) was 3520 ± 980 ng·h/mL. For the same compound, the AUC(0-inf) ([7]; male, Sprague-Dawley, rat, in vivo, po, 250 mg/kg, AUC∞, male SD rat plasma, single oral 250 mg/kg (Group 1), mean) was 3930 ng·h/mL and the Cmax ([7]; male, Sprague-Dawley, rat, in vivo, po, 250 mg/kg, Cmax, male SD rat plasma, single oral 250 mg/kg (Group 1), individual rats 450, 451, 452) was 334 ng/mL.
